# From patent US11707451B2, “Pharmaceutical composition for modified release” (ASTELLAS PHARMA INC., priority 2010, dated 2023)
# Test: Pharmacokinetics (PK) test of immediate release formulation (capsule formulation) in human
# Format: in vivo
# Details: healthy subjects; immediate release capsules, 0.1 to 340 mg; FIG. 11
# Method: The immediate release formulations (capsule formulations) containing 0.1 mg, 1 mg, 5 mg, 20 mg, and 80 mg of the compound A were used in combinations as needed so that the dose of compound A became 0.1 mg, 1 mg, 3 mg, 10 mg, 30 mg, 100 mg, 160 mg, 240 mg, and 340 mg.
structure (smiles),measurement,value
"Nc1nc(CC(=O)Nc2ccc(CCNC[C@H](O)c3ccccc3)cc2)cs1 [compound A, (R)-2-(2-aminothiazol-4-yl)-4′-[2-[(2-hydroxy-2-phenylethyl)amino]ethyl]acetic acid anilide]",relation between maximum plasma concentration (Cmax) and increase in heart rate from the base line,positive correlation
